According to article PMC7677715 (Redox Biology, 2020):

Legend:
[1] = target: T1, γ-TTP (α-tocopherol transfer protein A156L) (Homo sapiens, UniProt P49638, A156L); assay: X-ray crystal structure; format: binding
T1 sequence (P49638 48-278 A156L): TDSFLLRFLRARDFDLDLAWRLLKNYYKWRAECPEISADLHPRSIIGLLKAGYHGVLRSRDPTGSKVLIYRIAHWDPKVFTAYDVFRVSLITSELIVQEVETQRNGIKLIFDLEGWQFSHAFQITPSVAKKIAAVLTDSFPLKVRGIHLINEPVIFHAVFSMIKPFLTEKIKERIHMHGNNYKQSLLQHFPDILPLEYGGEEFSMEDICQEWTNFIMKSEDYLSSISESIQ

[2] = target: T2, α-tocopherol transfer protein (α-TTP) (Homo sapiens, UniProt P49638); assay: FRET ligand transfer to/from liposomes; format: binding
T2 sequence (P49638 1-278): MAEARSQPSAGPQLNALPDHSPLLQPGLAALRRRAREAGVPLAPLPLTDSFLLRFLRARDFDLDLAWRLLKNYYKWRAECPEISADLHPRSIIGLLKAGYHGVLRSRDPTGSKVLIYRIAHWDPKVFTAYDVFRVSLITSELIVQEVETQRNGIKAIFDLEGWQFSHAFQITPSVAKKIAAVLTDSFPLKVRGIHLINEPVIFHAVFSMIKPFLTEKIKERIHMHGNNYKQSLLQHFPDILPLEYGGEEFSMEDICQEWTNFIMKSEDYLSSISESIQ

| Compound | Kd [1] | Kp [2] |
| --- | --- | --- |
| Cc1c(O)cc2c(c1C)O[C@](C)(CCC[C@H](C)CCC[C@H](C)CCCC(C)C)CC2 [RRR-γ-tocopherol] | 53.8 nM | – |
| Cc1c(O)cc2c(c1C)O[C@](C)(CCC[C@H](C)CCC[C@H](C)CCCC(C)C)CC2 [γ-tocopherol] | – | 4.05 |
